Test results taken from patent US11584727B2, “2-thioxothiazolidin-4-one derivatives active as transthyretin ligands and uses thereof” (BSIM Therapeutics, S.A., priority 2014, dated 2023).

Assays:
[1] = molecular target: T1, transthyretin (TTR) (Homo sapiens, UniProt P02766); test: Thyroxine (T4) binding competition by gel electrophoresis in plasma, TTR band; conditions: for T4 bound to TTR: human plasma, [125I]T4, in presence of compound
T1 construct: from tissue; host or cells: human plasma
Description: (§1) Briefly, upon incubation of human plasma in the presence of the test compounds and radio-labeled T4 ([125I]T4), the samples are subjected to native PAGE. After electrophoresis, the gels are dried, subjected to phosphor imaging, and the intensity of the protein bands is then compared. […] The intensity of the bands decreases, as compared to the control samples (absence of compound), if the compound binds to the protein(s) competing with T4.
(§2) FIG. 24 presents the results of these experiments, where the bands in the gel correspond to the major T4 binding plasma proteins. The intensity of the bands decreases, as compared to the control samples (absence of compound), if the compound binds to the protein(s) competing with T4. The results were analyzed by calculation of the TTR/total (TTR+ALB+TBG) ratio for each sample collected at different time points. The displacement of T4 from TTR is calculated and plotted as the difference between the average of ratios of TTR/total protein for each control sample and the average of the ratios of TTR/total protein.
The assay for the binding to TTR through competition with T4 is performed by T4 binding gel electrophoresis as previously described in reference.
(§3) Five (5) μL of human plasma plus 0.25-0.5 μL of [125I]T4 (specific radioactivity 1250 μCi/m; concentration 320 μCi/mL; Perkin Elmer, Boston, Mass., U.S.A.) plus 5 μL of PBS with glycerol 50% are incubated for 1 hour at room temperature (RT) and the samples are subjected to native PAGE. After electrophoresis, the gels are dried, subjected to phosphor imaging (Typhoon 8600; Molecular Diagnostics, Amersham Biosciences), and analyzed using the ImageQuant program version 5.1. The intensity of the protein bands is compared. […]
The results are analyzed by calculation of the TTR/total (TTR+ALB+TBG) ratio for each sample collected at different time points. The displacement of T4 from TTR is calculated as the difference between the average of ratios of TTR/total protein for each control sample and the average of the ratios of TTR/total protein.

[2] = molecular target: T2, albumin (ALB) (Homo sapiens, UniProt P02768); test: Thyroxine (T4) binding competition by gel electrophoresis in plasma, albumin band; conditions: [125I]T4, in presence of compound
T2 construct: from tissue; host or cells: human plasma
T2 sequence (P02768 25-609): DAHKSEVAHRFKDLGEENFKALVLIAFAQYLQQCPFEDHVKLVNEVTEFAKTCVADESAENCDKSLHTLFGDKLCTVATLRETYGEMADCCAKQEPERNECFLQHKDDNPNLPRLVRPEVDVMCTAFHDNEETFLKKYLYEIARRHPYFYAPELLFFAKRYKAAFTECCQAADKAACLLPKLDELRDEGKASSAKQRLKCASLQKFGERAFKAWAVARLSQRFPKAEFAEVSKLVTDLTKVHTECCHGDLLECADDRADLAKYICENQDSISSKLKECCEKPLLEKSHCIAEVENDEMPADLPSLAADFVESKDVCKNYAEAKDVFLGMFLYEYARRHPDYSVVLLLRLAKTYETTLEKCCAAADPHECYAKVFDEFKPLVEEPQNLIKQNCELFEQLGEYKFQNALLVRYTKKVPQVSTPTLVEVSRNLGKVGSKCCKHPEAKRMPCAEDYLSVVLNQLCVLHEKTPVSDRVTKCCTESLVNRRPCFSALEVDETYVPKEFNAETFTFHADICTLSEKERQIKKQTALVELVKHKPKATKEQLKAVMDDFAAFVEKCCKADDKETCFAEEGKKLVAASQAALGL
Description: as §1
as §2, with “The intensity of the bands decreases, as compared to the control samples (absence of compound), if the compound binds to the protein(s) competing with T4.” left out, “protein. […]” for “protein.”
as §3, with “5.1.” for “5.1. The intensity of the protein bands is compared.”

[3] = molecular target: T3, human plasma TTR (Homo sapiens, UniProt P02766); test: Tetrameric TTR stability by isoelectric focusing (IEF) of plasma TTR, ex vivo; format: biochemical; conditions: human plasma incubated with compound; control (vehicle) 0.717
T3 construct: from tissue; host or cells: human plasma
Description: To perform the assay, 30 μL of human plasma are incubated with 5 μL of a 10 mM solution of test compounds and control compounds overnight at 4° C. followed by a 1 hour incubation at room temperature. The preparations are subjected to native PAGE. The gel band containing TTR is then excised and applied to an IEF gel and IEF is carried out in semi-denaturing conditions. Proteins are stained with Coomassie Blue, the gels are scanned and subjected to densitometry. The results are expressed as the ratio of TTR tetramer over the total TTR species present, reflecting TTR stability.
After treatment with the test compounds, TTR was separated by PAGE and the isolated protein was analyzed by IEF.
To perform the assay, 30 μL of human plasma are incubated with 5 μL of a 10 mM solution of test compounds and control compounds overnight at 4° C. followed by a 1 hour incubation at RT. The preparations are subjected to native PAGE and the gel band containing TTR is excised and applied to an IEF gel. IEF is carried out in semi-denaturing conditions (4 M urea), containing 5% (v/v) ampholytes pH 4-6.5 (GE Healthcare), at 1200 V for 6 hours. Proteins are stained with Coomassie Blue, the gels are scanned and subjected to densitometry using the ImageQuant program. The results are expressed as the ratio of TTR tetramer over total TTR.

[4] = tested on: FAP patients; conditions: 18-month phase-III clinical trial; cited from earlier work

Row | competition with T4 (in words) ([1]; T4 competition and gel electrophoresis) | T4 bound to TTR [1] [%] | T4 bound to ALB [2] [%] | tetramer/monomer ratio (IEF densitometry) [3] | Structure (SMILES) | FAP patients with improvement of symptoms [4]
1 | competes with T4 | 14.2 | 31.5 | 0.838 | COc1cc(/C=C2\SC(=S)N(CC(=O)O)C2=O)cc(Cl)c1O [AT50-A00 (Z), (Z)-3-hydroxycarbonylmethyl-5-(3′-chloro-4′-hydroxy-5′-methoxyphenylmethylidene)-2-thioxothiazolidin-4-one] | –
2 | – | 14.4 | 32.0 | – | O=C(O)c1ccc2nc(-c3cc(Cl)cc(Cl)c3)oc2c1 [Tafamidis, reference compound] | approximately 60%
